In publication PMC3605731 (Current pharmaceutical design, 2012):
Where two headings read alike, the source gives them in different places.

What was measured:
HIV-1 in HeLa cells = experiment: Virus inhibition assay; format: cell-based; conditions: 48 hours
HIV-1 in GHOST cells = experiment: Virus inhibition assay; format: cell-based; conditions: 48 hours
HIV-1 RT Y188L [1] = conditions: FEP/MC, relative to efavirenz; cited from earlier work
HIV-1 RT K103N [2] = conditions: FEP/MC, relative to efavirenz; cited from earlier work
HIV-1 RT L100I [3] = conditions: relative to nevirapine; cited from earlier work
HIV-1 RT K103N [4] = conditions: relative to efavirenz; cited from earlier work
HIV-1 RT Y188L [5] = conditions: relative to efavirenz; cited from earlier work
HIV-1 RT Y181C [6] = conditions: FEP/MC, relative to nevirapine; cited from earlier work
HIV-1 RT L100I [7] = conditions: FEP/MC, relative to nevirapine; cited from earlier work
HIV-1 RT Y181C [8] = conditions: relative to nevirapine; cited from earlier work
[9] = test system: HIV-1 infected human MT-2 cells; conditions: infected MT-2 human T-cell assay; cited from earlier work
HIV-1 protease [10] = conditions: cited from earlier work
HIV-1 protease [11] = conditions: cited from earlier work; remark: listed apart in the source

Compound: 2,6-dichlorobenzamido-1H-indole [Compound 5]
- viability (GHOST cells; 10 μM): 81%
- viability (GHOST cells; 50 μM): 46%
- HIV-1 inhibition (reduction in viral infectivity) (HIV-1 in HeLa cells; 0.2 μM): no appreciable inhibition
- HIV-1 inhibition (HIV-1 in HeLa cells; 10 μM): 30%
- HIV-1 inhibition (reduction in viral infectivity) (HIV-1 in GHOST cells; 0.2 μM): no appreciable inhibition
- HIV-1 inhibition (HIV-1 in GHOST cells; 10 μM): 30%

Compound: Cc1cc(C#N)cc(C)c1Oc1nc(Nc2ccc(C#N)cc2)nc(N)c1Br [etravirine]
- ΔΔG (computed), Y188L (HIV-1 RT Y188L [1]): -2.4 kcal/mol
- ΔΔG (computed), K103N (HIV-1 RT K103N [2]): -2.4 kcal/mol
- ΔΔG (experimental), L100I (HIV-1 RT L100I [3]): -2.36 ± 0.42 kcal/mol
- ΔΔG (experimental), K103N (HIV-1 RT K103N [4]): -2.00 ± 0.40 kcal/mol
- ΔΔG (experimental), Y188L (HIV-1 RT Y188L [5]): -2.07 ± 0.23 kcal/mol
- ΔΔG (predicted), Y181C (HIV-1 RT Y181C [6]): -2.6 kcal/mol
- ΔΔG (predicted), L100I (HIV-1 RT L100I [7]): -0.9 kcal/mol
- ΔΔG (experimental), Y181C (HIV-1 RT Y181C [8]): -1.36 ± 0.28 kcal/mol

Compound: Cc1ccnc2c1NC(=O)c1cccnc1N2C1CC1 [nevirapine]
- EC50 [9]: 110 nM

Compound: Nc1noc(C2CN3CCC2C3)n1 (stereo not shown) [oxadiazole]
- EC50 [9]: inactive

Compound: Ac-Ser-Leu-Asn-(Phe-Hea-Pro)-Ile-Val-OMe [JG-365]
- ΔΔGbind (experimental), heptapeptide → hexapeptide (HIV-1 protease [10]; from Ki values for an equilibrium mixture of R and S configurations): 3.8 ± 1.3 kcal/mol
- ΔΔGbind (calculated), heptapeptide → hexapeptide (deletion of valine) (HIV-1 protease [11]; FEP/MD, averaged for R and S): 3.3 ± 1.1 kcal/mol

Compound: Ac-Thr-Ile-Nle-ψ [CH2-NH]-Nle-Gln-Arg-NH2 [MVT-101]
- decrease of binding, single Nle to Met mutation (HIV-1 protease [11]): 0.7 kcal/mol

Compound: Ala-Ala-Phe[CH(OH)CH2]Gly-Val-Val-OMe [HEI]
- ΔΔGbind (experimental), central hydroxyl S to R (HIV-1 protease [10]): 2.6 kcal/mol
- ΔΔGbind (computed), central hydroxyl S to R (HIV-1 protease [11]; FEP/MD): 3.37 ± 0.64 kcal/mol
- predicted enhancement of binding, Gly to Nle mutation (HIV-1 protease [11]): 1.7 kcal/mol
